Patent EP0419676B1, “THIONAPHTHALENE DERIVATIVES, METHOD OF PRODUCING THE SAME, AND ANTIALLERGIC AGENT CONTAINING THE SAME” (TEIJIN LIMITED, priority 1989, dated 1990)
Where two headings read alike, the source gives them in different places.

What was measured:
[1] = tested on: anti-TNP IgE antibody production; experiment: IgE antibody production suppressive effect: anti-TNP IgE production by cultured spleen cells of TNP-KLH-immunized mouse; format: cell-based, BALB/C mouse; details: for Anti-TMP antibody production IgE, value in brackets (IgE production dependency on the antigen) / Anti-TMP antibody production IgE: TNP-KLH 10 ng/ml; for Anti-TMP antibody production IgE, value in brackets (IgE production dependency on the antigen): no addition 8.5; for Anti-TMP antibody production IgE: no addition 13.0
Description: (§1) An 8 weeks old BALB/C mouse (♀) was immunized by an intraperitoneal injection of 10 µg of TNP-KLH (trinitrophenyl-key hole limpet hemocyanine) and 2 mg of aluminum hydroxide gel, and after 3 weeks, 1 µg of TNP-KLH and 2 mg of aluminum hydroxide gel were boosted, and 4 weeks later, the spleen was enucleated.
(§2) The spleen cells (6 x 10⁶) were cultured together with 10 ng/ml of TNP-KLH, in the presence or non-presence of the compound of the present invention (10⁻⁵ to 10⁻⁷ M), in 1 ml of RPMI-1640 medium (containing 10% fetal bovine serum) for 2 days, followed by washing to remove the antigen and the drug, and the washed cells were resuspended in a fresh medium containing no antigen and further cultured for 5 days. All cultivations were performed under 5% CO₂ at 37°C. After completion of the culturing, the supernatant was recovered, and the concentration of anti-TNP IgE or anti-TNP IgG antibody was determined by an antigen and isotype specific immunoassay. […]
The values in the brackets ( ) indicate the values of the spontaneous IgE production amount observed when TNP-KLH was not added, and represent the IgE production dependency on the antigen.
(§3) The same experimental methods were used for the compounds shown below, and IgE antibody production suppressive effects were evaluated. […] (Exemplary compound VI - (1)): methyl (6,7-dimethoxy-2-naphthylthio)acetate (Exemplary compound V - (4)): N-(2-methoxycarbonylphenyl)-(6,7-dihydroxy-2-naphthylthio)acetamide (Exemplary compound V - (2)): N-tetrazolyl(6,7-dihydroxy-2-naphthylthio)acetamide Table 2

[2] = tested on: anti-TNP IgG; experiment: Anti-TNP IgG production by cultured spleen cells of TNP-KLH-immunized mouse; format: cell-based, BALB/C mouse; details: for Anti-TMP antibody production IgG: TNP-KLH 10 ng/ml, no addition 8.1
Description: as §1, §2, §3

[3] = tested on: peritoneal mast cells of rat; experiment: Histamine release from IgE-sensitized peritoneal mast cells, DNP-As antigen (allergic release); format: cell-based, Sprague-Dawley strain male rat
Description: (§4) To a Sprague-Dawley strain male rat (10 weeks or older) was intraperitoneally administered, under ether anesthesia, a diluted rat anti-DNP-As IgE serum at 2 ml/kg. After 16 hours, cells were recovered by washing intraperitoneally with a Tyrode solution containing 0.5% heparin (Ca⁺⁺, Mg⁺⁺, free). Mast cells (5 x 10⁴) separated by overlying in the 30% Ficoll/Tyrode solution and centrifugation were reliberated into the Tyrode solution (Ca⁺⁺, Mg⁺⁺) and incubated with the addition of the drug solution shown in Table 3-1, for 10 minutes, and then DNP-As and phosphatidylserine were added to final concentrations of 20 µg/ml and 25 µg/ml, respectively, followed by incubation for 10 minutes. The reaction was stopped by ice-cooling, and the histamine release in the supernatant was determined by fluorophotometry.

[4] = tested on: peritoneal mast cells of rat; experiment: Histamine release from peritoneal mast cells induced by Compound 48/80 (non-allergic release); format: cell-based, Sprague-Dawley strain male rat; details: for inhibition at 10 µM: 10⁻⁵ M
Description: as §4, with “fluorophotometry. Regarding the non-allergy release, 5 x 10⁴ of mast cells were investigated by incubation with 0.5 µg/ml of Compound 48/80 for 10 minutes, after the addition of the drug solution shown in Table 3-2.” for “fluorophotometry.”

[5] = tested on: Rat homologous PCA reaction; experiment: Rat homologous PCA reaction; format: in vivo, Sprague-Dawley strain male rat; details: p.o., 1 hour before antigen
Description: The back of a Sprague-Dawley strain male rat (6 - 8 w) was depilated, and at one site on both sides thereof, 0.1 ml of a rat anti-ovalbumin IgE serum diluted with physiological saline was intradermally injected under ether anesthesia. After 48 hours, 25 mg/kg of ovalbumin, 25 mg/kg of Evans Blue were intravenously administered to induce the PCA reaction, and after 30 minutes, the skin was peeled off, dipped in a mixture of 0.3% Na₂SO₄·10H₂O/Acetate (3:7), and the dye amount infiltrated was quantitated by absorbance at 620 nm. The drug listed in Table 4 was suspended in 5% gum arabic solution and orally administered 1 hour before the antigen administration.

[6] = target: T1, Lipoxygenase (Homo sapiens, UniProt P09917); experiment: Lipoxygenase inhibitory activity evaluation: LTB4 and 5-HETE production in A23187-stimulated whole blood; format: cell-based, healthy man; details: 10⁻⁵ M, A23187 25 µM
T1 construct: heparin-treated vein blood of a healthy person; from tissue; host or cells: human heparinised venous whole blood (leukocytes)
T1 sequence (P09917 1-674): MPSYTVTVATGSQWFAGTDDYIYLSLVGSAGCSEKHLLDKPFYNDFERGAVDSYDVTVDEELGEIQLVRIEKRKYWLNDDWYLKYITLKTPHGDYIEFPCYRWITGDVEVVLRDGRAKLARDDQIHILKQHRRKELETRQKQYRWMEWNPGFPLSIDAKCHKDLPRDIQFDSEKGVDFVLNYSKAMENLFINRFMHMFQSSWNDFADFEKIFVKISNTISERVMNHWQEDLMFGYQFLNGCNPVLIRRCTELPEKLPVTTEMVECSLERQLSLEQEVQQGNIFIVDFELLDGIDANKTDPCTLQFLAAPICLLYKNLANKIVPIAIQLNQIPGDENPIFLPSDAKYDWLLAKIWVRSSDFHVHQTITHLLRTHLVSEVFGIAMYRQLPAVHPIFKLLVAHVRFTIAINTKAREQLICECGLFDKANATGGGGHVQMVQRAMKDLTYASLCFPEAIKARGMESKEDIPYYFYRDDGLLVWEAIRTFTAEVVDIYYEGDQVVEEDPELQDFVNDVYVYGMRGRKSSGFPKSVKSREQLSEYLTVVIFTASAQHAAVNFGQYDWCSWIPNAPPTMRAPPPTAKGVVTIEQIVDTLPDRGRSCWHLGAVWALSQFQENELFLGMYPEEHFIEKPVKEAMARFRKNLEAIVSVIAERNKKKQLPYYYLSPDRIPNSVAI
Description: To 1 ml of heparin-treated vein blood of a healthy person without an administration of drugs was added 1 µl of a DMSO solution of the drug test sample listed in Table 5 (final 10⁻⁵ M), and after treatment at 37°C for 5 minutes, 5 µl of a DMSO solution of A23187 was added (final 25 µM) and the treatment carried out at 37°C for 15 minutes, followed by ice-cooling. After the addition of 10 µl of a DMSO solution of 100 ng of 15-HETE as the internal standard substance for quantitation, 0.8 ml of acetonitrile was added, and the precipitates formed were removed by centrifugation. Then, LTB₄ and 5-HETE in the supernatant were subjected to HPLC separation and quantitation (ref. F.J. Sweeney, et al., Prostaglandins Leukotrienes & Med., 28, 73 (1987)).

5-HETE (Inhibitory ratio %) [6]: 60%
LTB₄ (Inhibitory ratio %) [6]: 74%
Amount of LTB₄ produced ([6]; no addition 125): 32 ng/ml/plasma
Amount of 5-HETE produced ([6]; no addition 130): 52 ng/ml/plasma
SMILES: COC(=O)CSc1ccc2cc(O)c(O)cc2c1 [Exemplary compound IV-(1), Methyl (6,7-dihydroxy-2-naphthylthio)acetate]
suppression of anti-TNP IgE antibody production (in words) ([1]; 10⁻⁵ to 10⁻⁷ M): suppressed the anti-TNP IgE antibody production dose-dependency
Anti-TMP antibody production IgE, value in brackets (IgE production dependency on the antigen) ([1]; 10⁻⁶ M): 1.0 ng/mL
Anti-TMP antibody production IgE ([1]; 10⁻⁶ M): 5.5 ng/mL
Anti-TMP antibody production IgE, value in brackets (IgE production dependency on the antigen) ([1]; 10⁻⁷ M): 2.5 ng/mL
Anti-TMP antibody production IgE ([1]; 10⁻⁷ M): 7.5 ng/mL
suppressive ratio (antigen-dependent IgE production) ([1]; antigen-dependent IgE production compared with spontaneous IgE production): 70 - 90%
suppressive effect against the production of anti-TNP IgG (in words) [2]: substantially no suppressive effect
Anti-TMP antibody production IgG ([2]; 10⁻⁶ M): 7.3 µg/mL
Anti-TMP antibody production IgG ([2]; 10⁻⁷ M): 7.5 µg/mL
suppressive action against allergy histamine release (in words) [3]: suppressive actions
suppressive action against non-allergy histamine release (in words) [4]: weak suppressive actions
inhibition at 100 µM ([4]; Rattus norvegicus, Mast cell, 10 min, Experiment 1, 10⁻⁴ M, Compound 48/80 0.5 µg/ml, read-out: Inhibitory ratio (%) histamine release): 23%
inhibition at 10 µM ([4]; Rattus norvegicus, Mast cell, 10 min, Experiment 1, Compound 48/80 0.5 µg/ml, read-out: Inhibitory ratio (%) histamine release): 10.5%
inhibition at 1 µM ([4]; Rattus norvegicus, Mast cell, 10 min, Experiment 1, 10⁻⁶ M, Compound 48/80 0.5 µg/ml, read-out: Inhibitory ratio (%) histamine release): -1.9%
inhibition at 10 µM ([4]; Rattus norvegicus, Mast cell, 10 min, Experiment 2, Compound 48/80 0.5 µg/ml, read-out: Inhibitory ratio (%) histamine release): 2%
Suppressive ratio (%) Experiment 1 ([5]; 25 mg/kg): 14.8%
Suppressive ratio (%) Experiment 2 ([5]; 25 mg/kg): 24.2%
Suppressive ratio (%) Experiment 2 ([5]; 50 mg/kg): 31.3%
